US10100033B2 (dated 2018)

melting point: 87 to 91 °C
Compound: CCN(C(C)=O)c1cn(-c2cccnc2)nc1Cl
